Results on one molecule are retold here after patent US20240400579A1, “SPIROCYCLIC MODULATORS OF CHOLESTEROL BIOSYNTHESIS AND THEIR USE FOR PROMOTING REMYELINATION” (GENENTECH, INC., priority 2021, published 2024).

The target in test [1] is human emopamil binding protein and human 7-dehydrocholesterol reductase co-expressing cell membrane (Homo sapiens (Human), UniProt Q15125). The test is described as follows: hEBP-DHCR7 radioligand filtration binding assay with [3H]-Compound 118A*. The conditions noted are these: radioligand [3H]-Compound 118A*; HEK293 membrane co-expressing hEBP and DHCR7. In short, it runs like this:
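HEK293 membranes transiently co-expressing hEBP and hDHCR7 (10 μg/well) were incubated with [3H]-Compound 118A* (added at 25 nM) and compounds (8 doses, final 0.06–5000 nM, n=2) for 3 h at 22 °C. Bound radioactivity was read after PEI-treated GF/B filtration. IC50 came from a Hill fit of % inhibition and was converted to Ki.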

Test [2] concerns zymostenol accumulation in EpiSC-derived OPCs (EBP). The test is described as follows: GC/MS-based sterol profiling, zymostenol accumulation. The class given is cell-based, mouse. The conditions noted are these: Mus musculus, 24 h, 8 doses from 0.15 nM to 333 nM, read-out: mZymo GCMS EC50. In short, it runs like this: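 EpiSC-derived mouse OPCs plated at 100,000 cells/well in N2B27 without growth factors and treated 24 h. Sterols extracted, silylated with BSTFA and measured by GC/MS (EI, full scan), quantified against cholesterol-d7. Zymostenol normalized to levels after 24 h with 100 nM positive control reference.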

In test [3] the target is human EBP (Homo sapiens (Human), UniProt Q15125). The test is described as follows: Competition binding assay (SPA) to determine compound affinity to EBP. As to conditions: radioligand [3H]-Ifenprodil 10 nM; Ki=IC50/(1+[L]/Kd); HEK293 membrane; read-out: hEBP SPA Ki. As for the experimental part: Membrane preparation: To examine compound binding affinity to EBP, human EBP was overexpressed in human embryonic kidney 293 cells. Cell pellet was lysed in 10 times weight binding buffer (50 mM Tris, 5 mM MgCl2, 0.1 mM EDTA, 1× protease inhibitor cocktail, pH 7.5) on ice by using a dounce homogenizer. The solution was centrifuged at 25,000 g for 50 min at 4° C. The membrane pellet was re-suspended in binding buffer and run through a 25 5/8 gauge needle. After checking the concentration by Bradford assay, the whole cell membrane solution was adjusted to 20 mg/mL and stored at −80° C.
This binding solution was centrifuged at 400 g for 5 minutes to collect the bead/membrane mixture. After re-suspending the pellet in binding buffer at the same calculated volume with 0.01% BSA (Sigma A1933), the bead/membrane mixture was added in 384-well low-binding surface plate (PerkinElmer Cat #6057480) at 25 i/well. Radioligand at different concentrations with and without the non-radio-labeled same ligand 5 uM (for nonspecific and total signal, respectively) was added to bring final volume to 50 i/well with DMSO concentration at 0.1%. At equilibrium (3 hours after ligand addition), radiometric signal CPM was counted by using a Microbeta2 microplate counter (Perkinelmer).
Competition binding assay to determine compound affinity: The same conditions of the radioligand Kd study were used for compound single dose percentage inhibition and equilibrium dissociation constant Ki examinations, except 50 nL compound DMSO stock was pre-added in 384-well low-binding surface plate (PerkinElmer Cat #6057480) by Echo 550 (Labcyte) to reach the final concentration for single dose test at 1 uM, and dose response test from 0.06 nM to 5 uM (8 dose, 5 times dilution). A pre-incubated bead/membrane mixture was added in compound plate at 0.3 mg beads and […] membrane per well. […] At equilibrium (3 hours after ligand addition), radiometric signal was counted as described above. The percentage inhibition of compound at each testing concentration was calculated by normalizing each condition's CPM readout to full block (5 uM non-radiolabeled ligand) and non-block (DMSO) control conditions. Compound binding inhibition IC50 was determined by nonlinear regression fitting of percentage inhibition plot against compound concentration. Compound Ki was calculated from the equation Ki=IC50/(1+[L]/Kd), which [L] was radioligand concentration used in assay. All tests had N bigger or equal to 2.

Sequence of human emopamil binding protein and human 7-dehydrocholesterol reductase co-expressing cell membrane (Q15125 whole entry): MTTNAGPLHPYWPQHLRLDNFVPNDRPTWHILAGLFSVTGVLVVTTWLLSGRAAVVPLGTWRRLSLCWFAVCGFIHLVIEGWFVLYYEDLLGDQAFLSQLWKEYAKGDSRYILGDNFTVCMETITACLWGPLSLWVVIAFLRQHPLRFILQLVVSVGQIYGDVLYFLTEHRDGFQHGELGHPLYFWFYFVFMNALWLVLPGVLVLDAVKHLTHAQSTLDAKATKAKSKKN
Sequence of human EBP (Q15125 whole entry): as above

As usually defined, the Ki is the dissociation constant of the complex between target and ligand, obtained from inhibition or displacement. As a reminder, the EC50 is the concentration that produces a half-maximal response. Consider `CC(C)(CN1CCC2(C1)CS(=O)(=O)C2)Oc1ccccc1F` [Example 133, 6-(2-(2-Fluorophenoxy)-2-methylpropyl)-2-thia-6-azaspiro[3.4]octane 2,2-dioxide], for which the Ki in test [1] was determined as 86.6 nM; in test [3], 89 nM. Also, the EC50 in test [2] is 72 nM.
